Results: patent US20140088306A1, “RADIOACTIVE FLUORINE-LABELED QUINOXALINE COMPOUND” (Nihon Medi-Physics Co., Ltd., priority 2012, published 2014)
Each block holds one compound with its values, some of them ahead of it.

What was measured:
Aβ1-42 aggregates = target: T1, Aβ1-42 aggregates (Homo sapiens, UniProt P05067); assay: Binding evaluation using Aβ peptide aggregation in solution (Example 13); conditions: for Ki: inhibition of [^125I]IMPY binding to Aβ1-42 aggregates, value following ± shows SE, read-out: Kl
T1 construct: Aβ1-42 aggregates (Peptide Institute, Inc, Osaka) were dissolved in 0.1 mol/L phosphate-buffered saline; purchased Peptide Institute, Inc., Osaka
Description: Aβ1-42 peptide (Peptide Institute, Inc., Osaka) was gently dissolved at a concentration of 0.25 mg/mL in a PBS solution (pH 7.4), which was then incubated at 37° C. for 42 hours to prepare an Aβ1-42 aggregate PBS solution.
Thereafter, the resultant was filtered through Whatman (R) GF/B filter using a Brandell M-24 cell harvester, and the radioactivity of the filter was measured using a γ counter (Wallac 1470 Wizard, from Perkin-Elmer).
The half inhibition concentration (IC50) value was determined from a replacement straight line using GraphPad Prism 5.0, and the inhibition constant (Ki) was calculated using the Cheng-Prusoff equation: the above-described Expression (1).

amyloid plaques = assay: Autoradiography using postmortem brain section of patient with Alzheimer's disease (Example 7); format: binding, human (Alzheimer's disease patient); conditions: brain section (temporal lobe) of Alzheimer's disease patient; 0.37 MBq/100 μL, 1 hour
Description: A postmortem autopsy brain section (temporal lobe) of a patient with Alzheimer's disease was incubated together with each of [^18F]E3, [^18F]D3, [^18F]E1, and [^18F]E2 (0.37 MBq/100 μL each) at room temperature for 1 hour. The resultant was washed with a 50 volume % ethanol aqueous solution (2 minutes×2) and water (2 minutes×2), and after drying, the section was contacted with BAS imaging plate (from Fujifilm Corporation) for 1.5 hours. The image of autoradiography was obtained using BAS5000 scanner system (from Fujifilm Corporation).
A section adjacent to the brain section used was immunostained in the following manner.
First, a paraffin-embedded brain section of the Alzheimer's disease patient (temporal lobe, 6 μm in thickness) was incubated with xylene (15 minutes×2), ethanol (1 minute×2), a 90 volume % ethanol aqueous solution (1 minute×2), and a 70 volume % ethanol aqueous solution (1 minute×1) in that order for complete deparaffinization, and then washed in water (2.5 minutes×2). Thereafter, the section was subjected to autoclave treatment for 15 minutes in 0.01 mol/L citrate buffer solution (pH 6.0). The resultant was incubated in PBS-Tween20 (5 minutes×2), and a mouse anti-Aβ1-42 primary monoclonal antibody (from Wako Pure Chemical Industries Ltd.) was then added thereto, which was then incubated at room temperature overnight. The resultant was incubated in PBS-Tween20 (2 minutes×3), and a biotin-goat anti-mouse IgG (from Funakoshi Co., Ltd.) was then added thereto, which was then incubated at room temperature for 1 hour. The resultant was incubated in PBS-Tween20 (5 minutes×3), and a streptavidin-peroxidase complex (from Funakoshi Co., Ltd.) was added thereto, which was then incubated at room temperature for 30 minutes. In addition, the resultant was incubated in PBS-Tween20 (2 minutes×3); 3,3′-diaminobenzidine was added thereto, which was then incubated at room temperature for 30 minutes; and after washing with water, the section was observed under a microscope to provide an immunostained image (FIG. 10).

[1] = In vivo radioactivity distribution experiment (Example 8); conditions: ddY mice, tail vein, SD in parenthesis
Description: Through the tail vein of ddY mice (male, 5 week-old) was injected each of a 10 volume % ethanol-containing saline solution of [^18F]E3 (45.4 kBq, 100 μL), a 10 volume % ethanol-containing saline solution of [^18F]D3 (38.2 kBq, 100 μL), a 10 volume % ethanol-containing saline solution of [^18F]E1 (45.1 kBq, 100 μL), and a 10 volume % ethanol-containing saline solution of [^18F]E2 (40.6 kBq, 100 μL). Five mice were used for each group and sacrificed 2, 10, 30, and 60 minutes after administration to remove major organs. The blood and organs were weighed and further measured for radioactivity using a γ counter. The amount of radioactivity per unit mass was measured in each organ to evaluate radioactivity distribution.

T1 sequence (P05067 672-713 limits assumed): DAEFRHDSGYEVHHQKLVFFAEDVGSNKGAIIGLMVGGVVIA

- Ki (Aβ1-42 aggregates): 0.242 ± 0.029 µM
Structure (SMILES): Nc1ccc(-c2cnc3cc(OCCF)ccc3n2)cc1 [Compound D1, 4-(6-(2-Fluoroethoxy)quinoxalin-2-yl)aniline]

Structure (SMILES): CNc1ccc(-c2cnc3cc(OCCF)ccc3n2)cc1 [Compound D2, 4-(6-(2-Fluoroethoxy)quinoxalin-2-yl)-N-methylaniline]
- binding affinity relative to D1 (Aβ1-42 aggregates; Ki of D2 compared with D1): ≥ 10 times
- Ki (Aβ1-42 aggregates): 0.0157 ± 0.00128 µM

Structure (SMILES): CNc1ccc(-c2cnc3ccc(OCC[18F])cc3n2)cc1 [[^18F]E2, 4-(7-(2-[^18F]Fluoroethoxy)quinoxalin-2-yl)-N-methylaniline]
- visualization of gray matter / amyloid plaques by autoradiography (amyloid plaques): did not visualize the gray matter but rather strongly visualized the white matter
- Radioactivity Amount, Blood ([1]; 2 min. after): 3.37 (0.46) % injected dose/g
- Radioactivity Amount, Blood ([1]; 10 min. after): 3.83 (1.24) % injected dose/g
- Radioactivity Amount, Blood ([1]; 30 min. after): 3.10 (0.34) % injected dose/g
- Radioactivity Amount, Blood ([1]; 60 min. after): 3.40 (0.32) % injected dose/g
- Radioactivity Amount, Bone ([1]; 2 min. after): 1.86 (0.53) % injected dose/g
- Radioactivity Amount, Bone ([1]; 10 min. after): 1.91 (0.54) % injected dose/g
- Radioactivity Amount, Bone ([1]; 30 min. after): 2.07 (3.97) % injected dose/g
- Radioactivity Amount, Bone ([1]; 60 min. after): 2.36 (1.16) % injected dose/g
- Radioactivity Amount, Brain ([1]; 2 min. after): 5.96 (0.48) % injected dose/g
- Radioactivity Amount, Brain ([1]; 10 min. after): 3.77 (0.40) % injected dose/g
- Radioactivity Amount, Brain ([1]; 30 min. after): 2.18 (0.22) % injected dose/g
- Radioactivity Amount, Brain ([1]; 60 min. after): 1.91 (0.15) % injected dose/g
- Radioactivity Amount, Heart ([1]; 2 min. after): 7.42 (0.53) % injected dose/g
- Radioactivity Amount, Heart ([1]; 10 min. after): 4.41 (0.17) % injected dose/g
- Radioactivity Amount, Heart ([1]; 30 min. after): 8.53 (12.0) % injected dose/g
- Radioactivity Amount, Heart ([1]; 60 min. after): 3.92 (0.64) % injected dose/g
- Radioactivity Amount, Intestine ([1]; 2 min. after): 3.46 (0.75) % injected dose/g
- Radioactivity Amount, Intestine ([1]; 10 min. after): 12.5 (2.77) % injected dose/g
- Radioactivity Amount, Intestine ([1]; 30 min. after): 20.3 (2.55) % injected dose/g
- Radioactivity Amount, Intestine ([1]; 60 min. after): 22.1 (2.95) % injected dose/g
- Radioactivity Amount, Kidney ([1]; 2 min. after): 11.8 (2.51) % injected dose/g
- Radioactivity Amount, Kidney ([1]; 10 min. after): 7.55 (0.36) % injected dose/g
- Radioactivity Amount, Kidney ([1]; 30 min. after): 3.92 (0.45) % injected dose/g
- Radioactivity Amount, Kidney ([1]; 60 min. after): 3.12 (0.41) % injected dose/g
- Radioactivity Amount, Liver ([1]; 2 min. after): 6.84 (1.50) % injected dose/g
- Radioactivity Amount, Liver ([1]; 10 min. after): 11.7 (0.58) % injected dose/g
- Radioactivity Amount, Liver ([1]; 30 min. after): 7.95 (1.32) % injected dose/g
- Radioactivity Amount, Liver ([1]; 60 min. after): 6.95 (0.68) % injected dose/g
- Radioactivity Amount, Lung ([1]; 2 min. after): 6.71 (0.24) % injected dose/g
- Radioactivity Amount, Lung ([1]; 10 min. after): 4.98 (0.56) % injected dose/g
- Radioactivity Amount, Lung ([1]; 30 min. after): 3.34 (0.55) % injected dose/g
- Radioactivity Amount, Lung ([1]; 60 min. after): 4.06 (0.99) % injected dose/g
- Radioactivity Amount, Pancreas ([1]; 2 min. after): 5.42 (0.13) % injected dose/g
- Radioactivity Amount, Pancreas ([1]; 10 min. after): 4.91 (0.95) % injected dose/g
- Radioactivity Amount, Pancreas ([1]; 30 min. after): 2.60 (0.25) % injected dose/g
- Radioactivity Amount, Pancreas ([1]; 60 min. after): 2.73 (0.31) % injected dose/g
- Radioactivity Amount, Spleen ([1]; 2 min. after): 2.71 (0.44) % injected dose/g
- Radioactivity Amount, Spleen ([1]; 10 min. after): 4.53 (0.62) % injected dose/g
- Radioactivity Amount, Spleen ([1]; 30 min. after): 3.33 (0.66) % injected dose/g
- Radioactivity Amount, Spleen ([1]; 60 min. after): 3.17 (0.62) % injected dose/g
- Radioactivity Amount, Stomach* ([1]; 2 min. after): 1.13 (0.18) % injected dose per organ
- Radioactivity Amount, Stomach* ([1]; 10 min. after): 2.11 (0.55) % injected dose per organ
- Radioactivity Amount, Stomach* ([1]; 30 min. after): 1.56 (0.34) % injected dose per organ
- Radioactivity Amount, Stomach* ([1]; 60 min. after): 2.73 (2.44) % injected dose per organ
